Source: US20240343704A1, “HALO-SUBSTITUTED AMINO PYRIDINE COMPOUNDS AS INHIBITORS OF THE HAEMATOPOIETIC PROGENITOR KINASE 1 (HPK1)” (priority 2021, published 2024)

molecular target: T1, Recombinant (1-346) HPK1 (h) (Homo sapiens, UniProt Q92918); assay: HPK1 Human STE Kinase Enzymatic Radiometric Assay; assay type: biochemical; conditions: read-out: HPK1 IC50 nM Range*
T1 construct: Recombinant (1-346) HPK1 (h) is incubated with 8 mM MOPS pH 7.0
T1 sequence (Q92918 1-346): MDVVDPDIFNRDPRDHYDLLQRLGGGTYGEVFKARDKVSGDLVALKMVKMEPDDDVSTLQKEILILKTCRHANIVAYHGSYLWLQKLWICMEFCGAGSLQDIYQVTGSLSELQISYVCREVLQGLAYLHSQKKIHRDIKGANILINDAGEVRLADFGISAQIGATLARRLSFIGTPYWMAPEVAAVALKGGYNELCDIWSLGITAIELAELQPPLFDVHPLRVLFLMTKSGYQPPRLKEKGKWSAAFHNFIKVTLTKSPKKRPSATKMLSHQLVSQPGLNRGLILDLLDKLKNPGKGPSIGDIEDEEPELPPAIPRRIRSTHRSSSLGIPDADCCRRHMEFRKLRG
Description: A stock solution of 10 mM of test compound is prepared in DMSO. The compound plate was prepared by 3-fold and 9-point serial dilutions. […] The reaction is initiated by The addition of the Mg/ATP mix. After incubation for 40 minutes at RT, the reaction is stopped by the addition of phosphoric acid to a concentration of 0.5%.

Row | IC50 [nM] | SMILES
1 | 0.1 to 10 | CN(C)Cc1nc(-c2cc(-c3ccc4c(=O)[nH]cc(F)c4c3)c(N)nc2F)ccc1N1CCOCC1 [I-589, 6-(6′-amino-6-((dimethylamino)methyl)-2′-fluoro-5-morpholino-[2,3′-bipyridin]-5′-yl)-4-fluoroisoquinolin-1(2H)-one]
2 | 0.1 to 10 | CC(C)(C)OC(=O)N1CCN(c2ccc(-c3cc(-c4ccc5c(c4)CCNC5=O)c(N)nc3F)nc2)CC1 [I-590, tert-butyl4-(6′-amino-2′-fluoro-5′-(1-oxo-1,2,3,4-tetrahydroisoquinolin-6-yl)-[2,3′-bipyridin]-5-yl) piperazine-1-carboxylate]
3 | 0.1 to 10 | CC(=O)N1CCN(c2ccc(-c3cc(-c4cc5c(cc4F)C(=O)NCC5)c(N)nc3F)nc2)CC1 [I-592, 6-(5-(4-acetylpiperazin-1-yl)-6′-amino-2′-fluoro-[2,3′-bipyridin]-5′-yl)-7-fluoro-3,4-dihydroisoquinolin-1(2H)-one]
4 | 0.1 to 10 | Nc1nc(F)c(-c2ccc(N3CCN(CCCC(F)F)CC3)cn2)cc1-c1ccc2c(c1)CCNC2=O [I-593, 6-(6′-amino-5-(4-(4,4-difluorobutyl)piperazin-1-yl)-2′-fluoro-[2,3′-bipyridin]-5′-yl)-3,4-dihydroisoquinolin-1(2H)-one]
5 | 11 to 100 | CN(C)Cc1cccc(-c2cc(-c3ccc4c(c3)CCNC4=O)c(N)nc2F)c1 [I-594, 6-(2-amino-5-(3-((dimethylamino)methyl)phenyl)-6-fluoropyridin-3-yl)-3,4-dihydroisoquinolin-1(2H)-one]
6 | 11 to 100 | Cc1nc2cc(-c3cc(-c4ccc(N5C[C@@H](C)O[C@@H](C)C5)c(CN(C)C)c4)c(F)nc3N)ccc2c(=O)[nH]1 [I-595, 7-(2-amino-5-(3-((dimethylamino)methyl)-4-((2R,6S)-2,6-dimethylmorpholino)phenyl)-6-fluoropyridin-3-yl)-2-methylquinazolin-4(3H)-one]
7 | 11 to 100 | C[C@@H]1CN(c2ccc(-c3cc(-c4cc(F)c5c(c4)CCNC5=O)c(N)nc3F)cc2CN(C)C)C[C@H](C)O1 [I-596, 6-(2-amino-5-(3-((dimethylamino)methyl)-4-((2R,6S)-2,6-dimethylmorpholino)phenyl)-6-fluoropyridin-3-yl)-8-fluoro-3,4-dihydroisoquinolin-1(2H)-one]
8 | 11 to 100 | C[C@@H]1CN(c2ccc(-c3cc(-c4cc5c(cc4F)C(=O)NCC5)c(N)nc3F)cc2CN(C)C)C[C@H](C)O1 [I-597, 6-(2-amino-5-(3-((dimethylamino)methyl)-4-((2R,6S)-2,6-dimethylmorpholino)phenyl)-6-fluoropyridin-3-yl)-7-fluoro-3,4-dihydroisoquinolin-1(2H)-one]
9 | 11 to 100 | C[C@H]1CN(c2ccc(-c3cc(-c4ccc5c(c4)CCNC5=O)c(N)nc3F)cc2CN2CCC2)CCO1 [I-598, (S)-6-(2-amino-5-(3-(azetidin-1-ylmethyl)-4-(2-methylmorpholino)phenyl)-6-fluoropyridin-3-yl)-3,4-dihydroisoquinolin-1(2H)-one]
10 | 11 to 100 | C[C@H]1CN(c2ccc(-c3cc(-c4cc5c(cc4F)C(=O)NCC5)c(N)nc3F)cc2CN2CCC2)CCO1 [I-599, (S)-6-(2-amino-5-(3-(azetidin-1-ylmethyl)-4-(2-methylmorpholino)phenyl)-6-fluoropyridin-3-yl)-7-fluoro-3,4-dihydroisoquinolin-1(2H)-one]
11 | 0.1 to 10 | CN(C)Cc1nc(-c2cc(-c3ccc4c(c3)CCNC4=O)c(N)nc2F)ccc1C1CCOCC1 [I-600, 6-(6′-amino-6-((dimethylamino)methyl)-2′-fluoro-5-(tetrahydro-2H-pyran-4-yl)-[2,3′-bipyridin]-5′-yl)-3,4-dihydroisoquinolin-1(2H)-one]
12 | 0.1 to 10 | CN(C)Cc1nc(-c2cc(-c3cc4c(cc3F)C(=O)NCC4)c(N)nc2F)ccc1C1CCOCC1 [I-601, 6-(6′-amino-6-((dimethylamino)methyl)-2′-fluoro-5-(tetrahydro-2H-pyran-4-yl)-[2,3′-bipyridin]-5′-yl)-7-fluoro-3,4-dihydroisoquinolin-1(2H)-one]
13 | 0.1 to 10 | Nc1nc(F)c(-c2ccc(C3CCOCC3)c(CN3CCC3)n2)cc1-c1cc2c(cc1F)C(=O)NCC2 [I-602, 6-(6′-amino-6-(azetidin-1-ylmethyl)-2′-fluoro-5-(tetrahydro-2H-pyran-4-yl)-[2,3′-bipyridin]-5′-yl)-7-fluoro-3,4-dihydroisoquinolin-1(2H)-one]
14 | 0.1 to 10 | CCN(C)Cc1nc(-c2cc(-c3ccc4c(c3)CCNC4=O)c(N)nc2F)ccc1C1CCOCC1 [I-603, 6-(6′-amino-6-((ethyl(methyl)amino)methyl)-2′-fluoro-5-(tetrahydro-2H-pyran-4-yl)-[2,3′-bipyridin]-5′-yl)-3,4-dihydroisoquinolin-1(2H)-one]
15 | 0.1 to 10 | CCN(C)Cc1nc(-c2cc(-c3cc4c(cc3F)C(=O)NCC4)c(N)nc2F)ccc1C1CCOCC1 [I-604, 6-(6′-amino-6-((ethyl(methyl)amino)methyl)-2′-fluoro-5-(tetrahydro-2H-pyran-4-yl)-[2,3′-bipyridin]-5′-yl)-7-fluoro-3,4-dihydroisoquinolin-1(2H)-one]
16 | 0.1 to 10 | Nc1nc(F)c(-c2ccc(C3CCOCC3)c(CN3CCC3)n2)cc1-c1ccc2c(c1)CCNC2=O [I-605, 6-(6′-amino-6-(azetidin-1-ylmethyl)-2′-fluoro-5-(tetrahydro-2H-pyran-4-yl)-[2,3′-bipyridin]-5′-yl)-3,4-dihydroisoquinolin-1(2H)-one]
17 | 11 to 100 | CN(C)Cc1c(N2CCOCC2)ccc(-c2cc(-c3ccc4c(c3)CCNC4=O)c(N)nc2F)c1F [I-606, 6-(2-amino-5-(3-((dimethylamino)methyl)-2-fluoro-4-morpholinophenyl)-6-fluropyridin-3-yl)-3,4-dihydroisoquinolin-1(2H)-one]
18 | 11 to 100 | CN(C)Cc1c(N2CCOCC2)ccc(-c2cc(-c3cc4c(cc3F)C(=O)NCC4)c(N)nc2F)c1F [I-607, 6-(2-amino-5-(3-((dimethylamino)methyl)-2-fluoro-4-morpholinophenyl)-6-fluoropyridin-3-yl)-7-fluoro-3,4-dihydroisoquinolin-1(2H)-one]
19 | 11 to 100 | Nc1nc(F)c(-c2ccc(N3CCOCC3)c(CN3CCC3)c2F)cc1-c1cc2c(cc1F)C(=O)NCC2 [I-608, 6-(2-amino-5-(3-(azetidin-1-ylmethyl)-2-fluoro-morpholinophenyl)-6-fluoropyridin-3-yl)-7-fluoro-3,4-dihydroisoquinolin-1(2H)-one]
20 | 11 to 100 | CCN(C)Cc1c(N2CCOCC2)ccc(-c2cc(-c3ccc4c(c3)CCNC4=O)c(N)nc2F)c1F [I-610, 6-(2-amino-5-(3-((ethyl(methyl)amino)methyl)-2-fluoro-4-morpholinophenyl)-6-fluoropyridin-3-yl)-3,4-dihydroisoquinolin-1(2H)-one]
21 | 11 to 100 | CCN(C)Cc1c(N2CCOCC2)ccc(-c2cc(-c3cc4c(cc3F)C(=O)NCC4)c(N)nc2F)c1F [I-611, 6-(2-amino-5-(3-((ethyl(methyl)amino)methyl)-2-fluoro-4-morpholinophenyl)-6-fluoropyridin-3-yl)-7-fluoro-3,4-dihydroisoquinolin-1(2H)-one]
22 | 11 to 100 | CN(C)Cc1cc(-c2cc(-c3ccc4c(c3)CCNC4=O)c(N)nc2F)cnc1N1CCOCC1 [I-612, 6-(6-amino-5′-((dimethylamino)methyl)-2-fluoro-6′-morpholino-[3,3′-bipyridin]-5-yl)-3,4-dihydroisoquinolin-1(2H)-one]
23 | 11 to 100 | CN(C)Cc1cc(-c2cc(-c3ccc4c(c3)CCNC4=O)c(N)nc2F)ncc1N1CCOCC1 [I-613, 6-(6′-amino-4-((dimethylamino)methyl)-2′-fluoro-5-morpholino-[2,3′-bipyridin]-5′-yl)-3,4-dihydroisoquinolin-1(2H)-one]
24 | 11 to 100 | CC(C)N(C)Cc1cc(-c2cc(-c3ccc4c(c3)CCNC4=O)c(N)nc2F)ccc1N1CCOCC1 [I-614, 6-(2-amino-6-fluoro-5-(3-((isopropyl(methyl)amino)methyl)-4-morpholinoophenyl)pyridin-3-yl)-3,4-dihydroisoquinolin-1(2H)-one]
25 | 0.1 to 10 | CCN(CC)Cc1cc(-c2cc(-c3ccc4c(c3)CCNC4=O)c(N)nc2F)ccc1N1CCOCC1 [I-615, 6-(2-amino-5-(3-((diethylamino)methyl)-4-morpholinophenyl)-6-fluoropyridin-3-yl)-3,4-dihydroisoquinolin-1(2H)-one]
26 | 0.1 to 10 | CN(Cc1cc(-c2cc(-c3ccc4c(c3)CCNC4=O)c(N)nc2F)ccc1N1CCOCC1)CC1CCCO1 (stereo not shown) [I-616, 6-(2-amino-6-fluoro-5-(3-((methyl((tetrahydrofuran-2-yl)methyl)amino)methyl)-4-morpholinophenyl)pyridin-3-yl)-3,4-dihydroisoquinolin-1(2H)-one]
27 | 11 to 100 | CN(C)Cc1cc(-c2cc(-c3ccc4c(c3)CCNC4=O)c(N)nc2F)ccc1F [I-617, 6-(2-amino-5-(3-((dimethylamino)methyl)-4-fluorophenyl)-6-fluoropyridin-3-yl)-3,4-dihydroisoquinolin-1(2H)-one]
28 | 11 to 100 | CN(C)Cc1cc(-c2cc(-c3cc4c(cc3F)C(=O)NCC4)c(N)nc2F)ccc1F [I-618, 6-(2-amino-5-(3-((dimethylamino)methyl)-4-fluorophenyl)-6-fluoropyridin-3-yl)-7-fluoro-3,4-dihydroisoquinolin-1(2H)-one]
